# Measured values as given in US20240352010A1, “SUBSTITUTED 1,2,4-THIADIAZOLYL NICOTINAMIDES, SALTS OR N-OXIDES THEREOF AND THEIR USE AS HERBICIDALLY ACTIVE SUBSTANCES” (BayerAktiengesellschaft, priority 2021, published 2024).
# Tested on: Digitaria sanguinalis (DIGSA)
# Experiment: Herbicidal post-emergence action, DIGSA
# Assay type: in vivo
# Conditions: 1280 g/ha, assessed visually after ca. 3 weeks vs untreated controls (Table B12)
# Text: Seeds of mono- and dicotyledonous weed plants were sown in plastic pots (double sowings with one species of mono- and one species of dicotyledonous weed plants per pot), in sandy loam, covered with soil and grown under controlled growth conditions. 2 to 3 weeks after sowing, the test plants were sprayed in the single-leaf stage. The compounds according to the invention, formulated in the form of wettable powders (WP) or as emulsifiable concentrates (EC), were sprayed onto the green plant parts as an aqueous suspension or as an emulsion, with the addition of 0.5% of an additive, at an application rate of 600 litres of water per hectare (converted). The test plants were placed in the greenhouse for ca. 3 weeks under optimum growth conditions, and then the effect of the preparations is assessed visually in comparison with untreated controls (herbicidal effect in percent (%): 100% effect=plants have died, 0% effect=as control plants).
compound,measurement,value
O=C(Nc1ncns1)c1c(C2CC2)ccnc1F [Example I-005],"herbicidal effect in percent, DIGSA",100%
